{
  "source": "patent US11309064B2",
  "about": "“Individualized dosing technique with multiple variables” (priority 2017, dated 2022)",
  "key": {"[1]": {"test_system": "INR", "assay": "INR lab value at clinic visits under Warfarin (Example 4)", "assay_type": "in vivo, patient"}, "[2]": {"test_system": "patients with nonvalvular AF", "conditions": "long-term anticoagulation therapy; cited from earlier work"}, "[3]": {"test_system": "INR", "assay": "INR and individual INR/Warfarin dose equation (Examples 7 and 8)"}, "[4]": {"test_system": "INR", "assay": "Software readout, predicted INR for a Warfarin dose (Example 5)", "parameters": "species or system patient", "conditions": "5 mg by mouth every 24 hours", "from_the_text": "The nurse takes their INR lab value and enters it into a software program. The health care provider has the software open on a computer or a hand held device. Then the provider asks the patient the relevant questions, does a physical exam and inputs this into the electronic form."}, "[5]": {"test_system": "plasma proteins", "conditions": "cited from earlier work"}, "[6]": {"test_system": "blood glucose", "assay": "Software readout, predicted blood glucose for an insulin dose (Example 6)", "parameters": "species or system patient", "conditions": "100 units Subcutaneous every 24 hrs", "from_the_text": "A diabetes patient tells the health care provider their average daily blood glucose value. A health care provider can do this over a phone or via the Internet. A physical exam, review of biological systems, and medicine reconciliation is done and the information is put into software program. Then, for example, the software may have readout of “Given the data collected, the dose of 100 units of insulin Subcutaneous every 24 hrs will result in blood glucose of between 90-150 with a 50%-90% possibility if compliant with medications and no other variables change.”"}},
  "data": [
    {"compound": "CC(=O)CC(c1ccccc1)c1c(O)c2ccccc2oc1=O", "note": "(racemic) [Warfarin]", "values": [
      {"measurement": "INR", "setting": "[1]; 1 month later on 5 mg Warfarin, Lasix 40 mg every 24 hours, over 3 glasses of wine last evening", "value": 4.3},
      {"measurement": "INR", "setting": "[1]; 1 week on 7 mg Warfarin by mouth everyday, with HCTZ 25 mg, Doxycycline 100 mg every 12 hours, some aspirin", "value": 3.4},
      {"measurement": "INR", "setting": "[1]; 2 weeks after restart at 5 mg Warfarin, Lasix 60 mg a day, 73 kg, antidepressant", "value": 2.3},
      {"measurement": "INR", "setting": "[1]; 2 weeks on 5 mg Warfarin every day, HCTZ 25 mg only", "value": 2.5},
      {"measurement": "reduction of the risk for ischemic stroke", "setting": "[2]", "value": "approximately 68%"},
      {"measurement": "INR", "setting": "[3]; Lasix 30 mg/day and Warfarin 7.5 mg/day", "value": "~3"},
      {"measurement": "INR", "setting": "[3]; Warfarin 7.5 mg, 1 week after start of amoxicillin 500 mg / clavulanate 250 mg 3 times a day", "value": 2.5},
      {"measurement": "INR", "setting": "[3]; Warfarin 7.5 mg, next office visit after amoxicillin/clavulanate", "value": 6},
      {"measurement": "INR", "setting": "[3]; a week later again", "value": 9},
      {"measurement": "observed INR", "setting": "[3]; after Lasix increased to 60 mg/day, Warfarin dose from earlier formula", "value": "4-5"},
      {"measurement": "INR", "setting": "[3]; after Warfarin stopped, blood transfusion and a dose of Vitamin K", "value": 3.5},
      {"measurement": "predicted INR", "setting": "[4]", "value": "2-3"}
    ]},
    {"compound": "COc1cc([C@@H]2c3cc4c(cc3[C@@H](O[C@@H]3O[C@@H]5CO[C@@H](C)O[C@H]5[C@H](O)[C@H]3O)[C@H]3COC(=O)[C@H]23)OCO4)cc(OC)c1O", "note": "[etoposide]", "values": [
      {"measurement": "protein binding", "setting": "[5]", "value": "Highly protein bound. Interacts with other protein-bound drugs"}
    ]},
    {"compound": "CC(=O)O[C@H]1C(=O)[C@@]2(C)[C@H]([C@H](OC(=O)c3ccccc3)[C@]3(O)C[C@H](OC(=O)[C@H](O)[C@@H](NC(=O)c4ccccc4)c4ccccc4)C(C)=C1C3(C)C)[C@]1(OC(C)=O)CO[C@@H]1C[C@@H]2O", "note": "[paclitaxel]", "values": [
      {"measurement": "protein binding", "setting": "[5]", "value": "Highly protein bound. Interacts with other protein-bound drugs"}
    ]},
    {"compound": "insulin", "values": [
      {"measurement": "predicted blood glucose", "setting": "[6]", "value": "90-150"}
    ]},
    {"compound": "CC/C(=C(\\c1ccccc1)c1ccc(OCCN(C)C)cc1)c1ccccc1", "note": "[Tamoxifen]", "values": [
      {"measurement": "protein binding", "setting": "[5]", "value": "Tamoxifen and Warfarin are highly protein bound. Tamoxifen"}
    ]}
  ]
}
